From patent US20240218022A1, “ANTI-VISTA MACROCYCLIC PEPTIDES AND COMPOSITIONS” (BRISTOL-MYERS SQUIBB COMPANY, priority 2022, published 2024)
Where two headings read alike, the source gives them in different places. Positions of bridges follow the written chain, without caps; N, C: chain ends. Non-standard residues stand in square brackets, D forms with d. Residues, ends and D or L forms follow the SMILES beside them. 2Nal = N[C@@H](Cc1ccc2ccccc2c1)C(=O)O; Ahp(2) = CCCCC[C@H](N)C(=O)O; NHexGly = CCCCCCNCC(=O)O; Nle = CCCC[C@H](N)C(=O)O

Biological target: T1, mouse VISTA (mVISTA) (Mus musculus, UniProt Q9D659)
T1 construct: expressed in transfected cells; host or cells: Human embryonic kidney 293T cells
T1 sequence (Q9D659 33-308): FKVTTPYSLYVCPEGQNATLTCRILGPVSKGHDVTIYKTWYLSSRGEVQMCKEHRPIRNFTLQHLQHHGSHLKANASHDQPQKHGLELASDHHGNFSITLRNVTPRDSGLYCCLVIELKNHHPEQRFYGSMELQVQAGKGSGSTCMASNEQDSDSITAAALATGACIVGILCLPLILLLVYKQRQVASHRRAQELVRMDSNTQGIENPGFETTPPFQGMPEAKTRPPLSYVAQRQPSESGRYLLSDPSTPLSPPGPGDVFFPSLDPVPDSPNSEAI
Assay: Cell-Based Binding High-Content Assay For mVISTA (HC CBA mVISTA)
Conditions: read-out: HC CBA mVISTA IC50
Summary of the method: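 Read-out: Alexa 647–streptavidin signal imaged on fixed, Hoechst-stained mVISTA-293T cells, with IC50 taken from a four-parameter logistic curve. Compounds competed with 2 nM biotinylated peptide for 30 min at room temperature, tested under both no-wash and wash (1 h compound, media exchange, 1 h) formats.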

[1] = cell-based binding high-content assay, mVISTA, the 16th table
[2] = 293T cells expressing mouse VISTA, competition with biotinylated peptide (2 nM)

Row | Compound | IC50 [1] [nM] | IC50 [2] [nM]
1 | CCCCCCN1CC(=O)N[C@@H](Cc2ccc(O)cc2)C(=O)N[C@@H](C(C)C)C(=O)NCC(=O)N[C@@H](CCCNC(=N)N)C(=O)N[C@@H](CC(C)C)C(=O)N[C@@H](CCCCC)C(=O)N2CCC[C@H]2C(=O)N[C@@H](C(C)C)C(=O)N[C@@H](CC(=O)O)C(=O)N[C@H](C(=O)N[C@@H](Cc2ccc(O)cc2)C(N)=O)CSCC(=O)N[C@@H](Cc2ccc3ccccc3c2)C(=O)N[C@@H](Cc2ccc(O)cc2)C(=O)N[C@@H](CC(=O)O)C1=O [Ex 1322] ({CH2CO}-[2Nal]YD[NHexGly]YVGRL[Ahp(2)]PVDCY-NH2; thioether N-14) | 5.5 | –
2 | CCCCCCN1CC(=O)N[C@@H](Cc2ccc(O)cc2)C(=O)N[C@@H](CCCC)C(=O)N[C@@H](CC(N)=O)C(=O)N[C@@H](CCCNC(=N)N)C(=O)N[C@@H](CC(C)C)C(=O)N[C@@H](CCCCC)C(=O)N2CCC[C@H]2C(=O)N[C@@H](C(C)C)C(=O)N[C@@H](CC(=O)O)C(=O)N[C@H](C(=O)N[C@@H](Cc2ccc(O)cc2)C(N)=O)CSCC(=O)N[C@@H](Cc2ccc3ccccc3c2)C(=O)N[C@@H](Cc2ccc(O)cc2)C(=O)N[C@@H](CC(=O)O)C1=O [Ex 1323] ({CH2CO}-[2Nal]YD[NHexGly]Y[Nle]NRL[Ahp(2)]PVDCY-NH2; thioether N-14) | 13.5 | –
3 | CCCCCCN1CC(=O)N[C@@H](Cc2ccc(O)cc2)C(=O)N[C@@H](CCCC)C(=O)N[C@@H](CC(=O)O)C(=O)N[C@@H](CCCNC(=N)N)C(=O)N[C@@H](CC(C)C)C(=O)N[C@@H](CCCCC)C(=O)N2CCC[C@H]2C(=O)N[C@@H](C(C)C)C(=O)N[C@@H](CC(=O)O)C(=O)N[C@H](C(=O)N[C@@H](CC(=O)O)C(N)=O)CSCC(=O)N[C@@H](Cc2ccccc2)C(=O)N[C@@H](Cc2ccc(O)cc2)C(=O)N[C@@H](CC(=O)O)C1=O [Example 1001] ({CH2CO}-FYD[NHexGly]Y[Nle]DRL[Ahp(2)]PVDCD-NH2; thioether N-14) | – | 12.7
4 | CCCCCCN1CC(=O)N[C@@H](Cc2ccc(O)cc2)C(=O)N[C@@H](CCCCC)C(=O)N[C@@H](CC(=O)O)C(=O)N[C@@H](CCCNC(=N)N)C(=O)N[C@@H](CC(C)C)C(=O)N[C@@H](CCCCC)C(=O)N2CCC[C@H]2C(=O)N[C@@H](C(C)C)C(=O)N[C@@H](CC(=O)O)C(=O)N[C@H](C(=O)N[C@H](CC(=O)O)C(N)=O)CSCC(=O)N[C@@H](Cc2ccccc2)C(=O)N[C@@H](Cc2ccc(O)cc2)C(=O)N[C@@H](CC(=O)O)C1=O [Example 1002] ({CH2CO}-FYD[NHexGly]Y[Ahp(2)]DRL[Ahp(2)]PVDC[dD]-NH2; thioether N-14) | – | 14.9
5 | CCCCCCN1CC(=O)N[C@@H](Cc2ccc(O)cc2)C(=O)N[C@@H](CCCC)C(=O)N[C@@H](CC(=O)O)C(=O)N[C@@H](CCCNC(=N)N)C(=O)N[C@@H](CC(C)C)C(=O)N[C@@H](CCCCC)C(=O)N2CCC[C@H]2C(=O)N[C@@H](C(C)C)C(=O)N[C@@H](CC(=O)O)C(=O)N[C@H](C(=O)N[C@H](CC(=O)O)C(N)=O)CSCC(=O)N[C@@H](Cc2ccccc2)C(=O)N[C@@H](Cc2ccc(O)cc2)C(=O)N[C@@H](CC(=O)O)C1=O [Example 1003] ({CH2CO}-FYD[NHexGly]Y[Nle]DRL[Ahp(2)]PVDC[dD]-NH2; thioether N-14) | – | 18.8
6 | CCCCCCN1CC(=O)N[C@@H](Cc2ccc(O)cc2)C(=O)N[C@@H](CCCCC)C(=O)N[C@@H](CC(=O)O)C(=O)N[C@@H](CCCNC(=N)N)C(=O)N[C@@H](CC(C)C)C(=O)N[C@@H](CCCCC)C(=O)N2CCC[C@H]2C(=O)N[C@@H](C(C)C)C(=O)N[C@@H](CC(=O)O)C(=O)N[C@H](C(=O)N[C@@H](CCC(=O)O)C(N)=O)CSCC(=O)N[C@@H](Cc2ccccc2)C(=O)N[C@@H](Cc2ccc(O)cc2)C(=O)N[C@@H](CC(=O)O)C1=O [Example 1004] ({CH2CO}-FYD[NHexGly]Y[Ahp(2)]DRL[Ahp(2)]PVDCE-NH2; thioether N-14) | – | 12.9
7 | CCCCCCN1CC(=O)N[C@@H](Cc2ccc(O)cc2)C(=O)N[C@@H](CCCC)C(=O)N[C@@H](CC(=O)O)C(=O)N[C@@H](CCCNC(=N)N)C(=O)N[C@@H](CC(C)C)C(=O)N[C@@H](CCCCC)C(=O)N2CCC[C@H]2C(=O)N[C@@H](C(C)C)C(=O)N[C@@H](CC(=O)O)C(=O)N[C@H](C(=O)N[C@@H](CCC(=O)O)C(N)=O)CSCC(=O)N[C@@H](Cc2ccccc2)C(=O)N[C@@H](Cc2ccc(O)cc2)C(=O)N[C@@H](CC(=O)O)C1=O [Example 1005] ({CH2CO}-FYD[NHexGly]Y[Nle]DRL[Ahp(2)]PVDCE-NH2; thioether N-14) | – | 12.7
8 | CCCCCCN1CC(=O)N[C@@H](Cc2ccc(O)cc2)C(=O)N[C@@H](CCCCC)C(=O)N[C@@H](CC(N)=O)C(=O)N[C@@H](CCCNC(=N)N)C(=O)N[C@@H](CC(C)C)C(=O)N[C@@H](CCCCC)C(=O)N2CCC[C@H]2C(=O)N[C@@H](C(C)C)C(=O)N[C@@H](C)C(=O)N[C@H](C(=O)NCC(N)=O)CSCC(=O)N[C@@H](Cc2ccccc2)C(=O)N[C@@H](Cc2ccc(O)cc2)C(=O)N[C@@H](CC(=O)O)C1=O [Example 1006] ({CH2CO}-FYD[NHexGly]Y[Ahp(2)]NRL[Ahp(2)]PVACG-NH2; thioether N-14) | – | 38.6
9 | CCCCCCN1CC(=O)N[C@@H](Cc2ccc(O)cc2)C(=O)N[C@@H](CCCC)C(=O)NCC(=O)N[C@@H](CCCNC(=N)N)C(=O)N[C@@H](CC(C)C)C(=O)N[C@@H](CCCCC)C(=O)N2CCC[C@H]2C(=O)N[C@@H](C(C)C)C(=O)N[C@@H](C)C(=O)N[C@H](C(=O)NCC(=O)O)CSCC(=O)N[C@@H](Cc2ccccc2)C(=O)N[C@@H](Cc2ccc(O)cc2)C(=O)N[C@@H](CC(=O)O)C1=O [Example 1007] ({CH2CO}-FYD[NHexGly]Y[Nle]GRL[Ahp(2)]PVACG-OH; thioether N-14) | – | 15.1
10 | CCCCCCN1CC(=O)N[C@@H](Cc2ccc(O)cc2)C(=O)N[C@@H](CC(C)C)C(=O)N[C@@H](CC(N)=O)C(=O)N[C@@H](CCCNC(=N)N)C(=O)N[C@@H](CC(C)C)C(=O)N[C@@H](CCCCC)C(=O)N2CCC[C@H]2C(=O)N[C@@H](C(C)C)C(=O)N[C@@H](C)C(=O)N[C@H](C(=O)NCC(=O)O)CSCC(=O)N[C@@H](Cc2ccccc2)C(=O)N[C@@H](Cc2ccc(O)cc2)C(=O)N[C@@H](CC(=O)O)C1=O [Example 1008] ({CH2CO}-FYD[NHexGly]YLNRL[Ahp(2)]PVACG-OH; thioether N-14) | – | 34.9
11 | CCCCCCN1CC(=O)N[C@@H](Cc2ccc(O)cc2)C(=O)N[C@@H](CCCC)C(=O)NCC(=O)N[C@@H](CCCNC(=N)N)C(=O)N[C@@H](CC(C)C)C(=O)N[C@@H](CCCCC)C(=O)N2CCC[C@H]2C(=O)N[C@@H](C(C)C)C(=O)N[C@@H](CC(=O)O)C(=O)N[C@H](C(=O)NCC(=O)O)CSCC(=O)N[C@@H](Cc2ccccc2)C(=O)N[C@@H](Cc2ccc(O)cc2)C(=O)N[C@@H](CC(=O)O)C1=O [Example 1009] ({CH2CO}-FYD[NHexGly]Y[Nle]GRL[Ahp(2)]PVDCG-OH; thioether N-14) | – | 8
12 | CCCCCCN1CC(=O)N[C@@H](Cc2ccc(O)cc2)C(=O)N[C@@H](CCCC)C(=O)N[C@@H](CC(=O)O)C(=O)N[C@@H](CCCNC(=N)N)C(=O)N[C@@H](CC(C)C)C(=O)N[C@@H](CCCCC)C(=O)N2CCC[C@H]2C(=O)N[C@@H](C(C)C)C(=O)N[C@@H](CC(=O)O)C(=O)N[C@H](C(=O)NCC(=O)O)CSCC(=O)N[C@@H](Cc2ccccc2)C(=O)N[C@@H](Cc2ccc(O)cc2)C(=O)N[C@@H](CC(=O)O)C1=O [Example 1010] ({CH2CO}-FYD[NHexGly]Y[Nle]DRL[Ahp(2)]PVDCG-OH; thioether N-14) | – | 5.6
13 | CCCCCCN1CC(=O)N[C@@H](Cc2ccc(O)cc2)C(=O)N[C@@H](CC(C)C)C(=O)N[C@@H](CC(N)=O)C(=O)N[C@@H](CCCNC(=N)N)C(=O)N[C@@H](CC(C)C)C(=O)N[C@@H](CCCCC)C(=O)N2CCC[C@H]2C(=O)N[C@@H](C(C)C)C(=O)N[C@@H](CC(=O)O)C(=O)N[C@H](C(=O)NCC(=O)O)CSCC(=O)N[C@@H](Cc2ccccc2)C(=O)N[C@@H](Cc2ccc(O)cc2)C(=O)N[C@@H](CC(=O)O)C1=O [Example 1011] ({CH2CO}-FYD[NHexGly]YLNRL[Ahp(2)]PVDCG-OH; thioether N-14) | – | 15.9
14 | CCCCCCN1CC(=O)N[C@@H](Cc2ccc(O)cc2)C(=O)N[C@@H](CCCNC(=N)N)C(=O)N[C@@H](CC(N)=O)C(=O)N[C@@H](CCCNC(=N)N)C(=O)N[C@@H](CC(C)C)C(=O)N[C@@H](CCCCC)C(=O)N2CCC[C@H]2C(=O)N[C@@H](C(C)C)C(=O)N[C@@H](CC(=O)O)C(=O)N[C@H](C(=O)NCC(=O)O)CSCC(=O)N[C@@H](Cc2ccccc2)C(=O)N[C@@H](Cc2ccc(O)cc2)C(=O)N[C@@H](CC(=O)O)C1=O [Example 1012] ({CH2CO}-FYD[NHexGly]YRNRL[Ahp(2)]PVDCG-OH; thioether N-14) | – | 21.1
15 | CCCCCCN1CC(=O)N[C@@H](Cc2ccc(O)cc2)C(=O)N[C@@H](CCCCC)C(=O)N[C@@H](CC(=O)O)C(=O)N[C@@H](CCCNC(=N)N)C(=O)N[C@@H](CC(C)C)C(=O)N[C@@H](CCCCC)C(=O)N2CCC[C@H]2C(=O)N[C@@H](C(C)C)C(=O)N[C@@H](CC(=O)O)C(=O)N[C@H](C(=O)NCC(=O)O)CSCC(=O)N[C@@H](Cc2ccccc2)C(=O)N[C@@H](Cc2ccc(O)cc2)C(=O)N[C@@H](CC(=O)O)C1=O [Example 1013] ({CH2CO}-FYD[NHexGly]Y[Ahp(2)]DRL[Ahp(2)]PVDCG-OH; thioether N-14) | – | 17.1
